Assay results as given in patent US4062948A, “Dihydromocimycin antibiotics” (Gist-Brocades N.V., priority 1970, dated 1977).
Structures can show the parent of a compound that is named as a salt.

Legend:
Assay type in all cases: in vivo
[1] = growth promotion in slaughter chickens (Example II); details: control = 100
Source text: Slaughter chickens are given mocimycin in the form of the sodium salt obtained in Example 1, in a mixture with component of the feed (wheat flour), the amount of antibiotic in the feed (based on the weight of the feed) being as specified in the following Table, which gives the weight of the chickens after 3, 5 and 7 weeks.

[2] = growth promotion in pigs (Example III); details: control = 100
Procedure: The sodium salt of mocimycin as obtained in Example I, was pre-mixed with wheat flour which mixture, added to the feed, was administered to pigs. The amount of the antibiotic present in the feed (based on the weight of the feed) is given hereinbelow in Table VII, in which the average relative weights of the pigs after 6 and 12 weeks, respectively are given.

[3] = tested on: microorganism causing Treponema dysentery; test: pigs infected with Treponema dysentery (Example VI)
Source text: Twenty pigs, 3 months old, were infected with the microorganism causing Treponema dysentery by administering to them feed mixed with a homogenous mixture of contents of the intestines and intestinal mucous membranes of two animals suffereing from the disease. The infected pigs were divided into four groups of five animals each and the animals were fed with the feed as a slurry diluted 1:1 with water for 1 week. The total amount of feed per animal was 1.2 kg each day and was given in two portions.
After 5 days, the first symptoms of the disease were observed from the thin faeces and confirmed by a microbiological investigation of the faeces and […] a week, the animals were treated as follows:
group 2: 100 ppm of tylosin were added to the feed;
group 3: 25ppm of dihydromocimycin were added to the feed; and
group 4: 50 ppm of dihydromocimycin were added to the feed.
The antibiotic-enriched feed was administered for a week. After that week, feed without any antibiotic was given again. Recovery from the infection was observed from the weights of the animals and from inspection samples of the faeces, macroscopically from their consistencies, and microscopically by means of a specific immuno-fluoroescence technique. During the test, one animal of each of groups 1, 3 and 4 died.
The results are shown in the following Table wherein the weights indicated are the averages at that time of the still living animals. The consistency of the faeces is indicated as follows:
+ means thin liquid; ± means thick liquid; - means normal. The results of the immuno-fluorescence technique are indicated quantitatively by indicating the number of Treponemas in the visual field: 5 means very crowded; 4 means many; 3 means about 10 Treponemas; 2 means 1 or 2 Treponemas, 1 means more visual fields necessary to find one Treponema, and - means negative.

CC=CC=CC1OC(O)(C(CC)C(=O)NCC=CC=C(C)C(OC)C(C)C2OC(C=CC=CC=C(C)C(=O)c3c(O)cc[nH]c3=O)C(O)C2O)C(O)C(O)C1(C)C (stereo not drawn) [sodium salt of mocimycin]
weight of chickens relative to control (control = 100) ([1]; 5 ppm in feed, 3 weeks): 104% | weight of chickens relative to control (control = 100) ([1]; 5 ppm in feed, 5 weeks): 103% | weight of chickens relative to control (control = 100) ([1]; 5 ppm in feed, 7 weeks): 103% | weight of chickens relative to control (control = 100) ([1]; 10 ppm in feed, 3 weeks): 107% | weight of chickens relative to control (control = 100) ([1]; 10 ppm in feed, 5 weeks): 105% | weight of chickens relative to control (control = 100) ([1]; 10 ppm in feed, 7 weeks): 104% | weight of chickens relative to control (control = 100) ([1]; 20 ppm in feed, 3 weeks): 109% | weight of chickens relative to control (control = 100) ([1]; 20 ppm in feed, 5 weeks): 107% | weight of chickens relative to control (control = 100) ([1]; 20 ppm in feed, 7 weeks): 105% | feed conversion ([2]; 5 ppm in feed, 6 weeks): 95 | growth (average relative weight) ([2]; 5 ppm in feed, 6 weeks): 107 | feed conversion ([2]; 5 ppm in feed, 12 weeks): 98 | growth (average relative weight) ([2]; 5 ppm in feed, 12 weeks): 104.5 | feed conversion ([2]; 10 ppm in feed, 6 weeks): 92.5 | growth (average relative weight) ([2]; 10 ppm in feed, 6 weeks): 108.5 | feed conversion ([2]; 10 ppm in feed, 12 weeks): 99 | growth (average relative weight) ([2]; 10 ppm in feed, 12 weeks): 104

CC[C@H]1OC(=O)C[C@@H](O)[C@H](C)[C@@H](O[C@@H]2O[C@H](C)[C@@H](O[C@H]3C[C@@](C)(O)[C@@H](O)[C@H](C)O3)[C@H](N(C)C)[C@H]2O)[C@@H](CC=O)C[C@@H](C)C(=O)/C=C/C(C)=C/[C@@H]1CO[C@@H]1O[C@H](C)[C@@H](O)[C@@H](OC)[C@H]1OC [tylosin, reference compound]
Weights ([3]; tylosin 100 ppm group, after 1 week (start of antibiotics)): 22.2 kg | Weights ([3]; tylosin 100 ppm group, just before infection (baseline)): 24.4 kg | Weights ([3]; tylosin 100 ppm, after 2 weeks): 21.4 kg | Weights ([3]; tylosin 100 ppm, after 3 weeks): 23.2 kg
